Measured values: patent publication US12084472B2 (Ardelyx, Inc., priority 2015, dated 2024)

Target: T1, human TGR5 (Homo sapiens, UniProt Q8TDU6)
T1 construct: expressed in transfected cells; host or cells: HEK293
T1 sequence (Q8TDU6 1-330): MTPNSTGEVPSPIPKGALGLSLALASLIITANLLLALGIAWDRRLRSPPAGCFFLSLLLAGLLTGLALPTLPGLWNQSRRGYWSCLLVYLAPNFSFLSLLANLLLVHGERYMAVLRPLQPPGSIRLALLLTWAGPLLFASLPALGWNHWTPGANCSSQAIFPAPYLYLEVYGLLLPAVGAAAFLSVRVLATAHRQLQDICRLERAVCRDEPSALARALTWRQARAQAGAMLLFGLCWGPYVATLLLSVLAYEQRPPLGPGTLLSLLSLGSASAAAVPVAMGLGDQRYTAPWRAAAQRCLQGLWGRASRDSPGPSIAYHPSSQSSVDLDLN
Assay: Cell-based TGR5 assay (cAMP generation, HTRF)
Conditions: HEK293 cells stably transfected with human TGR5, cAMP by HTRF, 30 minutes at 37° C.; for EC50: read-out: pEC50 Human TGR5 (converted)
Procedure, shortened: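 Read-out was HTRF detection of cAMP, converted to concentration via a standard curve and fitted (3-parameter logistic) for pEC50 and maximal response. Agonist stimulation used HEK293 cells stably transfected with human TGR5, incubated 30 min at 37° C in IBMX-containing buffer at 0.05 nM to 10 μM compound.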

EC50 [µM] | pEC50 Human TGR5 | Compound
< 0.1 | – | O=C(NC[C@H](O)[C@@H](O)[C@H](O)[C@H](O)CO)c1ccc(CCc2ccc(Cl)c(COC3(c4cnccc4-c4ccccc4OC4CC4)CC3)c2)cn1 [Compound I-748, 5-(4-chloro-3-((1-(4-(2-cyclopropoxyphenyl)pyridin-3-yl)cyclopropoxy)methyl)phenethyl)-N-((2S,3R,4R,5R)-2,3,4,5,6-pentahydroxyhexyl)picolinamide]
0.126 to 1 | – | Cc1ccc(SCCCN(CCCS(C)(=O)=O)C(=O)[C@@H](O)[C@@H](O)[C@H](O)[C@@H](O)CO)cc1CNC1(c2cnccc2-c2ccccc2OC2CC2)CC1 [Compound I-544, (2S,3S,4R,5S)-N-[3-({3-[({1-[4-(2-cyclopropoxyphenyl)pyridin-3-yl]cyclopropyl}amino)methyl]-4-methylphenyl}sulfanyl)propyl]-2,3,4,5,6-pentahydroxy-N-(3-methanesulfonylpropyl) hexanamide]
– | B (B is a pEC50 of 6 to 6.9) | CN(CCCCNC(=O)NCCOCCOCCNC(=O)NCCCCNC(=O)NCCOCCOCCNC(=O)NCCCCN(C)S(=O)(=O)c1ccc(Cl)c(COC2(c3cnccc3-c3ccccc3OC3CC3)CC2)c1)S(=O)(=O)c1ccc(Cl)c(COC2(c3cnccc3-c3ccccc3OC3CC3)CC2)c1 [Compound I-736, 3-(4-[N-methyl[4-chloro-3-([1-[4-(2-cyclopropoxyphenyl)pyridin-3-yl]cyclopropoxy]methyl)benzene]sulfonamido]butyl)-1-[2-(2-[2-[([4-[([2-[2-(2-[[(4-[N-methyl[4-chloro-3-([1-[4-(2-cyclopropoxyphenyl)pyridin-3-yl]cyclopropoxy]methyl)benzene]sulfonamido]butyl)carbamoyl]amino]ethoxy)ethoxy]ethyl]carbamoyl)amino]butyl]carbamoyl)amino]ethoxy]ethoxy)ethyl]urea]
0.126 to 1 | – | CN(C)C(=O)c1ccc(Cl)c(COC2(c3cnccc3-c3ccccc3OC3CC3)CC2)c1 [Compound I-725, 4-Chloro-3-((1-(4-(2-cyclopropoxyphenyl)pyridin-3-yl)cyclopropoxy)methyl)-N,N-dimethylbenzamide]
1.26 to 10 | – | CCC(OCc1cc(Cl)ccc1Cl)c1cnccc1-c1ccccc1OC1CC1 (centres unmarked) [Compound I-779, 4-(2-cyclopropoxyphenyl)-3-(1-((2,5-dichlorobenzyl)oxy)propyl)pyridine]
< 0.1 | – | O=C(NCCCCSc1ccc(Cl)c(COC2(c3cnccc3-c3ccccc3OC3CC3)CC2)c1)N[C@@H](CO)[C@@H](O)[C@H](O)[C@H](O)CO [Compound I-628, 1-(4-{[4-chloro-3-({1-[4-(2-cyclopropoxyphenyl)pyridin-3-yl]cyclopropoxy}methyl)phenyl]sulfanyl}butyl)-3-[(2S,3R,4S,5R)-1,3,4,5,6-pentahydroxyhexan-2-yl]urea]

Further lines, the molecule ahead of its results:

Compound | EC50 [µM] | pEC50 Human TGR5
CN(CCCCNC(=O)N[C@@H](CO)[C@@H](O)[C@H](O)[C@H](O)CO)S(=O)(=O)c1cc(CNC2(c3cnccc3-c3ccccc3OC3CC3)CC2)c(Cl)cc1F [Compound I-475, 1-(4-{N-methyl4-chloro-5-[({1-[4-(2-cyclopropoxyphenyl)pyridin-3-yl]cyclopropyl}amino)methyl]-2-fluorobenzenesulfonamido}butyl)-3-[(2S,3R,4S,5R)-1,3,4,5,6-pentahydroxyhexan-2-yl]urea] | < 0.1 | –
O=C(NCCCC[C@H](NS(=O)(=O)c1ccc(Cl)c(COC2(c3cnccc3-c3ccccc3OC3CC3)CC2)c1)C(=O)O)NC[C@H](O)[C@@H](O)[C@H](O)[C@H](O)CO [Compound I-483, (2S)-2-[4-chloro-3-({1-[4-(2-cyclopropoxyphenyl)pyridin-3-yl]cyclopropoxy}methyl)benzenesulfonamido]-6-({[(2S,3R,4R,5R)-2,3,4,5,6-pentahydroxyhexyl]carbamoyl}amino)hexanoic acid] | 0.126 to 1 | –
CN(CCCCNC(=O)N[C@@H](CO)[C@@H](O)[C@H](O)[C@H](O)CO)S(=O)(=O)c1ccc(Cl)c(CNC2(c3cnccc3-c3ccccc3OC3CC3)CC2)c1 [Compound I-472, 1-(4-{N-methyl4-chloro-3-[({1-[4-(2-cyclopropoxyphenyl)pyridin-3-yl]cyclopropyl}amino)methyl]benzenesulfonamido}butyl)-3-[(2S,3R,4S,5R)-1,3,4,5,6-pentahydroxyhexan-2-yl]urea] | < 0.1 | –
CC(CCCC(=O)NCCN1CCN(CC(=O)NC[C@H](O)[C@@H](O)[C@H](O)[C@H](O)CO)CC1)c1ccc(Cl)c(CNC2(c3cnccc3-c3ccccc3OC3CC3)CC2)c1 (stereo partly drawn) [Compound I-324, 5-{4-chloro-3-[({1-[4-(2-cyclopropoxyphenyl)pyridin-3-yl]cyclopropyl}amino)methyl]phenyl}-N-{2-[4-({[(2S,3R,4R,5R)-2,3,4,5,6-pentahydroxyhexyl]carbamoyl}methyl)piperazin-1-yl]ethyl}hexanamide] | < 0.1 | –
O=C([C@@H](O)[C@@H](O)[C@H](O)[C@@H](O)CO)N(CCCCSc1ccc(Cl)c(COC2(c3cnccc3-c3ccccc3OC3CC3)CC2)c1)CCN1CCS(=O)(=O)CC1 [Compound I-524, (2S,3S,4R,5S)-N-(4-{[4-chloro-3-({1-[4-(2-cyclopropoxyphenyl)pyridin-3-yl]cyclopropoxy}methyl)phenyl]sulfanyl}butyl)-N-[2-(1,1-dioxo-1λ^6,4-thiomorpholin-4-yl)ethyl]-2,3,4,5,6-pentahydroxyhexanamide] | 0.126 to 1 | –
CC(CCCC(=O)N(C)C[C@H](O)[C@@H](O)[C@H](O)[C@H](O)CO)c1ccc(Cl)c(CNC2(c3cnccc3-c3ccccc3OC3CC3)CC2)c1 (stereo partly drawn) [Compound I-327, 5-{4-chloro-3-[({1-[4-(2-cyclopropoxyphenyl)pyridin-3-yl]cyclopropyl}amino)methyl]phenyl}-N-methyl-N-[(2S,3R,4R,5R)-2,3,4,5,6-pentahydroxyhexyl]hexanamide] | < 0.1 | –
O=C(O)CCCC(=O)N(CCCCc1cc(Cl)c(CNC2(c3cnccc3-c3ccccc3OC3CC3)CC2)cc1Cl)C[C@H](O)[C@@H](O)[C@H](O)[C@H](O)CO [Compound I-63, 4-[(4-[2,5-dichloro-4-[([1-[4-(2-cyclopropoxyphenyl)pyridin-3-yl]cyclopropyl]amino)methyl]phenyl]butyl) [(2S,3R,4R,5R)-2,3,4,5,6-pentahydroxyhexyl]carbamoyl]butanoic acid] | 0.126 to 1 | –
COC[C@@H](O)CN(C[C@H](O)[C@@H](O)[C@H](O)[C@H](O)CO)C(=O)CCCCc1cc(Cl)c(COC2(c3cnccc3-c3ccccc3OC3CC3)CC2)cc1Cl [Compound I-125, 5-[2,5-dichloro-4-({1-[4-(2-cyclopropoxyphenyl)pyridin-3-yl]cyclopropoxy}methyl)phenyl]-N-[(2S)-2-hydroxy-3-methoxypropyl]-N-[(2S,3R,4R,5R)-2,3,4,5,6-pentahydroxyhexyl]pentanamide] | < 0.1 | –
Cc1cc(COC2(c3cnccc3-c3ccccc3OC3CC3)CC2)c(Cl)cc1CCCCNC(=O)N[C@@H](CO)[C@@H](O)[C@H](O)[C@H](O)CO [Compound I-95, 1-(4-(5-chloro-4-((1-(4-(2-cyclopropoxyphenyl)pyridin-3-yl)cyclopropoxy)methyl)-2-methylphenyl)butyl)-3-((2S,3R,4S,5R)-1,3,4,5,6-pentahydroxyhexan-2-yl)urea] | < 0.1 | –
CC(CCCNC(=O)NC[C@H](O)[C@@H](O)[C@H](O)[C@H](O)CO)c1ccc(Cl)c(CNC2(c3cnccc3-c3ccccc3OC3CC3)CC2)c1 (stereo partly drawn) [Compound I-265, 1-(4-{4-chloro-3-[({1-[4-(2-cyclopropoxyphenyl)pyridin-3-yl]cyclopropyl}amino)methyl]phenyl}pentyl)-3-[(2S,3R,4R,5R)-2,3,4,5,6-pentahydroxyhexyl]urea] | < 0.1 | –
CC(OCCc1cc(Cl)c(COC2(c3cnccc3-c3ccccc3OC3CC3)CC2)cc1Cl)C(=O)N(C)C[C@H](O)[C@@H](O)[C@H](O)[C@H](O)CO (stereo partly drawn) [Compound I-155, 2-{2-[2,5-dichloro-4-({1-[4-(2-cyclopropoxyphenyl)pyridin-3-yl]cyclopropoxy}methyl)phenyl]ethoxy}-N-methyl-N-[(2S,3R,4R,5R)-2,3,4,5,6-pentahydroxyhexyl]propanamide] | < 0.1 | –
CC(CCCN(C(=O)[C@@H](O)[C@@H](O)[C@H](O)[C@@H](O)CO)C1CCS(=O)(=O)CC1)c1ccc(Cl)c(COC2(c3cnccc3-c3ccccc3OC3CC3)CC2)c1 (stereo partly drawn) [Compound I-311, (2S,3S,4R,5S)-N-{4-[4-chloro-3-({1-[4-(2-cyclopropoxyphenyl)pyridin-3-yl]cyclopropoxy}methyl)phenyl]pentyl}-N-(1,1-dioxo-1λ^6-thian-4-yl)-2,3,4,5,6-pentahydroxyhexanamide] | < 0.1 | –
CC[C@@H](O)CN(C[C@H](O)[C@@H](O)[C@H](O)[C@H](O)CO)C(=O)CCCCc1cc(Cl)c(COC2(c3cnccc3-c3ccccc3OC3CC3)CC2)cc1Cl [Compound I-123, 5-[2,5-dichloro-4-({1-[4-(2-cyclopropoxyphenyl)pyridin-3-yl]cyclopropoxy}methyl)phenyl]-N-[(2R)-2-hydroxybutyl]-N-[(2S,3R,4R,5R)-2,3,4,5,6-pentahydroxyhexyl]pentanamide] | < 0.1 | –
O=C(O)CN1CCN(CCNC(=O)CCCCc2cc(Cl)c(COC3(c4cnccc4-c4ccccc4OC4CC4)CC3)cc2Cl)CC1 [Compound I-91, 2-(4-(2-(5-(2,5-dichloro-4-((1-(4-(2-cyclopropoxyphenyl)pyridin-3-yl)cyclopropoxy)methyl)phenyl)pentanamido)ethyl)piperazin-1-yl)acetic acid] | < 0.1 | –
